Earlier results on two compounds are cited in patent US20230414697A1, “ENHANCED GINGEROLS FOR PATIENTS SUFFERING FROM NAUSEA AND EMESIS” (Aphios Corporation, priority 2020, published 2023).

Each structure is given as a SMILES string.

For data set [1] the following is noted: 2.0 gm oral ginger, 1.25 mg intravenous droperidol, placebo; 24 hour period following surgery.
The conditions of data set [2]: ginger 0.5 gm or 1 gm, metochlopramide 10 mg.
The conditions of data set [3]: post-operative; reported by Bone and colleagues.

As to `O=C(CCCN1CC=C(n2c(=O)[nH]c3ccccc32)CC1)c1ccc(F)cc1` [droperidol], the “differences in frequency or severity of post-operative nausea or frequency of post-operative vomiting” value in data set [1] is given as “no differences”.
In the case of `CCN(CC)CCNC(=O)c1cc(Cl)c(N)cc1OC` [metochlopramide], the “post-operative nausea vs placebo” value in data set [2] (both studies) is given as “significantly more effective than placebo”. Also, the “effectiveness for post-operative nausea, ginger compared with metochlopramide” value in data set [2] (women undergoing gynecologic surgery, two studies) is “equal effectiveness”. The “frequency of emesis, differences between the three arms” value (ginger, metochlopramide, placebo, post-operative) is “no significant differences”. The patients nauseated result (post operative, placebo 41%) is given as “placebo, 27%”. Besides, the vomiting vs placebo result in data set [3] was “less vomiting”.
